Molecular target: T1, Ba/F3 cell EGFR Exon20 ins NPH (Homo sapiens, UniProt P00533, INS773NPH)
T1 construct: expressed in transfected cells; host or cells: Ba/F3
Assay: Ba/F3 cell proliferation suppression, EGFR Exon20 ins NPH
Format: cell-based
Conditions: GI50 class; Ba/F3 cell line with NPH inserted at Exon20 of EGFR; 72 hours
Procedure, shortened: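 Seed 3000–5000 cells/well; after 24 h add compound (12 conc., 0.3 nM–50 um final); incubate 72 h; add CellTiter-Glo, 10 min room temperature; read luminescence; GI50 from % growth vs control, triplicate.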

SMILES	Ba/F3 (NPH) Activity
C=CC(=O)Nc1cc(Nc2cc(N3OCC[C@@H]3c3cc(F)cc(F)c3)ncn2)c(OC)cc1N1CCN(C)C[C@H]1C [compound 918, N-(5-((6-((R)-3-(3,5-difluorophenyl)isoxazolidine-2-yl)pyrimidine-4-yl)amino)-2-((R)-2,4-dimethylpiperazine-1-yl)-4-methoxyphenyl) acrylamide]	A (GI50 < 50 nM)
C=CC(=O)Nc1cc(Nc2cc(N3OCC[C@@H]3c3cc(F)cc(F)c3)ncn2)c(F)cc1N1CCC(N2CCN(C3CC3)CC2)CC1 [compound 533, N-(2-(4-(4-cyclopropylpiperazine-1-yl)piperidine-1-yl)-5-((6-((R)-3-(3,5-difluorophenyl)isoxazolidine-2-yl)pyrimidine-4-yl)amino)-4-fluorophenyl) acrylamide]	A (GI50 < 50 nM)
C=CC(=O)Nc1cc(Nc2cc(N3OCC[C@@H]3c3ccc(F)c(Cl)c3)ncn2)c(OC)cc1N1CCOCC1 [compound 824, N-(5-((6-((R)-3-(3-chloro-4-fluorophenyl)isoxazolidine-2-yl)pyrimidine-4-yl)amino)-4-methoxy-2-morpholinophenyl) acrylamide]	A (GI50 < 50 nM)
C=CC(=O)Nc1cc(Nc2cc(N3OCC[C@@H]3c3ccc(C)nc3)ncn2)c(OC)cc1N1CCC(N2CCN(C)CC2)CC1 [Example 47, N-(4-methoxy-2-(4-(4-methylpiperazine-1-yl)piperidine-1-yl)-5-((6((R)-3-(6-methylpyridine-3-yl)isoxazolidine-2-yl)pyrimidine-4-yl)amino)phenyl) acrylamide]	B (50 nM ≤ GI50 < 500 nM)
C=CC(=O)Nc1cc(Nc2cc(N3OCC[C@@H]3c3cccc(F)c3)ncn2)c(OC)cc1N1C[C@H]2C[C@@H]1CO2 [compound 833, N-(2-((1R,4R)-2-oxa-5-azabicyclo[2.2.1]heptane-5-yl)-5-((6-((R)-3-(3-fluorophenyl)isoxazolidine-2-yl)pyrimidine-4-yl)amino)-4-methoxyphenyl) acrylamide]	A (GI50 < 50 nM)
C=CC(=O)Nc1cc(Nc2cc(N3OCC[C@@H]3c3c(F)ccc(F)c3F)ncn2)c(OC)cc1N1CCC(N2C[C@H]3C[C@@H]2CO3)CC1 [compound 641, N-(2-(4-((1R,4R)-2-oxa-5-azabicyclo[2.2.1]heptane-5-yl)piperidine-1-yl)-4-methoxy-5-((6-((R)-3-(2,3,6-trifluorophenyl)isoxazolidine-2-yl)pyrimidine-4-yl)amino)phenyl)acrylamide]	A (GI50 < 50 nM)
C=CC(=O)Nc1cc(Nc2cc(N3OCC[C@@H]3c3ccc(F)c(Cl)c3)ncn2)c(OC)cc1N1CCC(N2CCC3(CC2)CC3)CC1 [compound 872, N-(2-(4-(6-azaspiro [2.5]octan-6-yl)piperidine-1-yl)-5-((6-((R)-3-(3-chloro-4-fluorophenyl)isoxazolidine-2-yl)pyrimidine-4-yl)amino)-4-methoxyphenyl) acrylamide]	A (GI50 < 50 nM)
C=CC(=O)Nc1cc(Nc2cc(N3OCC[C@@H]3Cc3cccc(F)c3)ncn2)c(OC)cc1N1CCC(N2CCOCC2)CC1 [compound 996, N-(5-((6-((S)-3-(3-fluorobenzyl)isoxazolidine-2-yl)pyrimidine-4-yl)amino)-4-methoxy-2-(4-morpholinopiperidine-1-yl)phenyl)acrylamide]	A (GI50 < 50 nM)
C=CC(=O)Nc1cc(Nc2cc(N3OCC[C@@H]3c3ccc(F)cc3F)ncn2)c(OC)cc1N1CCC(N2CC[C@@H](N(C)C)C2)CC1 [compound 429, N-(5-((6-((R)-3-(2,4-difluorophenyl)isoxazolidine-2-yl)pyrimidine-4-yl)amino)-2-(4-((R)-3-(dimethylamino)pyrolidine-1-yl)piperidine-1-yl)-4-methoxyphenyl) acrylamide]	A (GI50 < 50 nM)
C=CC(=O)Nc1cc(Nc2cc(N3OCC[C@@H]3c3cccc(F)c3)ncn2)c(OC)cc1N1CCN(C(C)=O)CC1 [compound 831, N-(2-(4-acetylpiperazine-1-yl)-5-((6-((R)-3-(3-fluorophenyl)isoxazolidine-2-yl)pyrimidine-4-yl)amino)-4-methoxyphenyl) acrylamide]	A (GI50 < 50 nM)
C=CC(=O)Nc1cc(Nc2cc(N3OCC[C@@H]3c3cc(F)cc(F)c3)ncn2)c(OC)cc1N1CCC(N2CCN(C3COC3)CC2)CC1 [Example 79, N-(5-((6-((R)-3-(3,5-difluorophenyl)isoxazolidine-2-yl)pyrimidine-4-yl)amino)-4-methoxy-2-(4-(4-(oxetane-3-yl)piperazine-1-yl)piperidine-1-yl)phenyl)acrylamide]	A (GI50 < 50 nM)
C=CC(=O)Nc1cc(Nc2cc(N3OCC[C@@H]3c3cccc4ccccc34)ncn2)c(OC)cc1N1CCC(N2CCN(C3CC3)[C@@H](C)C2)CC1 [Example 156, N-(2-(4-((S)-4-cyclopropyl-3-methylpiperazine-1-yl)piperidine-1-yl)-4-methoxy-5-((6-((R)-3-(naphthalene-1-yl)isoxazolidine-2-yl)pyrimidine-4-yl)amino)phenyl)acrylamide]	A (GI50 < 50 nM)
C=CC(=O)Nc1cc(Nc2cc(N3OCC[C@@H]3c3cccc(F)c3)ncn2)c(OC)cc1N1CC[C@H](N2CCOCC2)C1 [compound 321, N-(5-((6-((R)-3-(3-fluorophenyl)isoxazolidine-2-yl)pyrimidine-4-yl)amino)-4-methoxy-2-((S)-3-morpholinopyrolidine-1-yl)phenyl)acrylamide]	B (50 nM ≤ GI50 < 500 nM)
C=CC(=O)Nc1cc(Nc2cc(N3OCC[C@@H]3c3ccc(Cl)cc3F)ncn2)c(OC)cc1N1CCC(N2CCN(C(C)=O)CC2)CC1 [compound 375, N-(2-(4-(4-acetylpiperazine-1-yl)piperidine-1-yl)-5-((6-((R)-3-(4-chloro-2-fluorophenyl)isoxazolidine-2-yl)pyrimidine-4-yl)amino)-4-methoxyphenyl) acrylamide]	A (GI50 < 50 nM)
C=CC(=O)Nc1cc(Nc2cc(N3OCC[C@@H]3c3cccc(F)c3)ncn2)c(OC)cc1N1CCC(N2CC[C@H](N(C)C)C2)CC1 [compound 744, N-(2-(4-((S)-3-(dimethylamino)pyrolidine-1-yl)piperidine-1-yl)-5-((6-((R)-3-(3-fluorophenyl)isoxazolidine-2-yl)pyrimidine-4-yl)amino)-4-methoxyphenyl) acrylamide]	A (GI50 < 50 nM)
C=CC(=O)Nc1cc(Nc2cc(N3OCC[C@@H]3c3cc(F)ccc3F)ncn2)c(OC)cc1N1CC[C@@H](N(C)C)C1 [compound 848, N-(5-((6-(2,5-((R)-3-difluorophenyl)isoxazolidine-2-yl)pyrimidine-4-yl)amino)-2-((R)-3-(dimethylamino)pyrolidine-1-yl)-4-methoxyphenyl) acrylamide]	A (GI50 < 50 nM)
C=CC(=O)Nc1cc(Nc2cc(N3OCC[C@@H]3c3cccc(C)c3F)ncn2)c(OC)cc1N1CCC(N2CCN(C(C)=O)CC2)CC1 [compound 421, N-(2-(4-(4-acetylpiperazine-1-yl)piperidine-1-yl)-5-((6-((R)-3-(2-fluoro-3-methylphenyl)isoxazolidine-2-yl)pyrimidine-4-yl)amino)-4-methoxyphenyl) acrylamide]	A (GI50 < 50 nM)
C=CC(=O)Nc1cc(Nc2cc(N3OCC[C@@H]3c3cccc(Cl)c3Cl)ncn2)c(OC)cc1N1CCN(C(C)C)CC1 [compound 475, N-(5-((6-((R)-3-(2,3-dichlorophenyl)isoxazolidine-2-yl)pyrimidine-4-yl)amino)-2-(4-isopropylpiperazine-1-yl)-4-methoxyphenyl) acrylamide]	A (GI50 < 50 nM)
C=CC(=O)Nc1cc(Nc2cc(N3OCC[C@@H]3c3cc(F)cc(F)c3)ncn2)c(OC)cc1N1CCN(C2CC2)CC1 [compound 438, N-(2-(4-cyclopropylpiperazine-1-yl)-5-((6-((R)-3-(3,5-difluorophenyl)isoxazolidine-2-yl)pyrimidine-4-yl)amino)-4-methoxyphenyl) acrylamide]	A (GI50 < 50 nM)
C=CC(=O)Nc1cc(Nc2cc(N3OCC[C@@H]3c3ccc(Cl)c(F)c3)ncn2)c(OC)cc1N1C[C@@H]2C[C@H]1CO2 [compound 862, N-(2-((1S,4S)-2-oxa-5-azabicyclo [2.2.1]heptane-5-yl)-5-((6-((R)-3-(4-chloro-3-fluorophenyl)isoxazolidine-2-yl)pyrimidine-4-yl)amino)-4-methoxyphenyl) acrylamide]	A (GI50 < 50 nM)
C=CC(=O)Nc1cc(Nc2cc(N3OCC[C@@H]3c3cccc(C)c3F)ncn2)c(OC)cc1N1CCC(N2CCC(N(C)C)CC2)CC1 [compound 420, N-(2-(4-(dimethylamino)-[1,4'-bipiperidine]-1'-yl)-5-((6-((R)-3-(2-fluoro-3-methylphenyl)isoxazolidine-2-yl)pyrimidine-4-yl)amino)-4-methoxyphenyl) acrylamide]	A (GI50 < 50 nM)
C=CC(=O)Nc1cc(Nc2cc(N3OCC[C@@H]3c3cccc(Cl)c3Cl)ncn2)c(OC)cc1N(C)CCN(C)C [compound 516, N-(5-((6-((R)-3-(2,3-dichlorophenyl)isoxazolidine-2-yl)pyrimidine-4-yl)amino)-2-((2-(dimethylamino)ethyl)(methyl)amino)-4-methoxyphenyl) acrylamide]	A (GI50 < 50 nM)
C=CC(=O)Nc1cc(Nc2cc(N3OCC[C@@H]3c3ccc(F)c(Cl)c3)ncn2)c(OC)cc1N1CCC(N2CCN(C(C)=O)CC2)CC1 [compound 763, N-(2-(4-(4-acetylpiperazine-1-yl)piperidine-1-yl)-5-((6-((R)-3-(3-chloro-4-fluorophenyl)isoxazolidine-2-yl)pyrimidine-4-yl)amino)-4-methoxyphenyl) acrylamide]	A (GI50 < 50 nM)
